This note sets out measurements from patent publication US6083969A, “1,3- and 2,3-diarylcycloalkano and cycloalkeno pyrazoles as selective inhibitors of cyclooxygenase-2 and antiinflammatory agents” (Ortho-McNeil Pharaceutical, Inc., priority 1999, dated 2000).

For test [1], the target named is T1, COX-1 (Homo sapiens, UniProt P23219).
T1 construct: Remove the platelet-rich plasma (PRP) and dilute the PRP 1:20 with 0.9% NaCl; endogenous in cells; host or cells: human platelets (platelet-rich plasma of one volunteer)
Put plainly: Human platelet thromboxane B2 production (via COX-1). It counts as cell-based. Particulars: human platelets, TXB2 production; read-out: P5: COX 1 Human Platelet IC50. As to the method:
HUMAN […] THROMBOXANE B2 PRODUCTION (via COX-1)
Procedure 5 was used to determine thromboxane B2 (TXB2) production (via COX-1) in human platelets as follows:
Draw blood from one volunteer into heparinized tubes then spin at RT for 15 to 20 minutes at 1,000 RPM. Remove the platelet-rich plasma (PRP) and dilute the PRP 1:20 with 0.9% NaCl containing 14.4U heparin/mL. Add 180 μL of the diluted PRP to each well of a 96-well plate and incubate at 37° C. for 5 minutes. Then add 20 μL vehicle (HBSS with 1% DMSO) or drug and incubate for 15 minutes at 37° C. Add 10 μl calcium ionophore and incubate 15 minutes at 37° C. Stop the reaction on slush ice for 5 minutes and assay supernatants immediately for TXB2 production via RIA or EIA.
Prepare all drugs at 10 mM in DMSO by diluting the drug in HBSS at a 1.100 ratio with 1% DMSO to 100 μM. Add 20 μl to PRP (1:10 ratio) to obtain 10 μM final concentration. The calcium ionophore is prepared by using 7 mg/mL free acid calcium ionophore in DMSO, which is warmed until the ionophore goes into solution. Just prior to use, dilute the solution 1:25 with HBSS.

Test [2] has as its target T2, human prostaglandin H2 synthase type I (COX-1) (Homo sapiens, UniProt P23219).
T2 construct: expressed in transfected cells; host or cells: COS-7 (African Green Monkey Kidney)
Put plainly: Human prostaglandin H2 synthase type I (COX-1) homogenate assay (transfected COS-7 cells, PGE2 formation). It counts as biochemical. The note with it: COS-7 homogenate; for inhibition at 10 µM: read-out: P6: COX 1 Homogenized Cell % Inhibition. The method, then:
HUMAN PROSTAGLANDIN H2 SYNTHASE--TYPE I (COX-1) HOMOGENATE ASSAY (SINGLE CONCENTRATION)
Procedures 6 and 7 were used to assess COX-1 activity in a homogenized cell assay as follows:
(§1) COS-7 (African Green Monkey Kidney) cells are maintained in a suitable medium, and are trypsinized and plated at a density of 1×10^6 cells/well of a 6 well plate prior to assay. Approximately 24 hours later, cells are transiently transfected with a plasmid containing the human COX-1 gene using the lipofectamine method. Two days later, the cell-free homogenate is prepared by subjecting the cells to a polytron followed by centrifugation at 9,000×g. COX activity, initiated by the addition of […] arachidonic acid to the 9,000×g supernatant, is monitored in the presence of vehicle or drug. Product (PGE2) formation is quantitated by radioimmunoassay. Activity, reported as percent inhibition of PGE2 produced, is calculated as follows: [formula]

The target of test [3] is T3, human prostaglandin H2 synthase type II (COX-2) (Homo sapiens, UniProt P35354).
T3 sequence (P35354 18-604): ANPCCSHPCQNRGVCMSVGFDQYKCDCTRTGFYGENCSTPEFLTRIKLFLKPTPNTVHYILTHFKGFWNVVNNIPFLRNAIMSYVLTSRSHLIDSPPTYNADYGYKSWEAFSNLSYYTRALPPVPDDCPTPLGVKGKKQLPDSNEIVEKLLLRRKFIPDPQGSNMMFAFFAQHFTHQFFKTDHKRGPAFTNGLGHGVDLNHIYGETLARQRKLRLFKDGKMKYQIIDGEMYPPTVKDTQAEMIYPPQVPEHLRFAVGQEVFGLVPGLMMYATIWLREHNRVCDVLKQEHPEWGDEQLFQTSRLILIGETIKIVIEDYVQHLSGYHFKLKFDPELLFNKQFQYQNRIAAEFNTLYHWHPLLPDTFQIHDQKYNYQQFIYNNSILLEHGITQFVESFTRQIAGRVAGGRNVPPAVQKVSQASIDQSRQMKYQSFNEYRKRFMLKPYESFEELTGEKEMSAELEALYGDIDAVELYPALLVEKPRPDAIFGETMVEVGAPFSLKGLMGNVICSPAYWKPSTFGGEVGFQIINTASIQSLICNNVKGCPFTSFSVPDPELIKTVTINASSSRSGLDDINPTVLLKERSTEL
Put plainly: Human prostaglandin H2 synthase type II (COX-2) whole cell assay (ECV-304 cells, PGE2 by radioimmunoassay). It counts as cell-based. Details: endogenous in cells; host or cells: ECV-304. Particulars: for inhibition at 10 µM / inhibition at 3 µM: read-out: P1: COX 2 Whole Cell % Inhibition; for IC50: read-out: P2: COX 2 Whole Cell IC50; for inhibition at 3 µM: @3 μM (superscript a). As to the method:
HUMAN PROSTAGLANDIN H2 SYNTHASE TYPE II (COX-2) WHOLE CELL ASSAY (MULTIPLE CONCENTRATIONS)
Procedures 1 and 2 were used to determine the ability of the compounds to inhibit human prostaglandin H2 synthase type II (COX-2) in a whole cell assay at multiple concentrations as follows:
Approximately 28 h later, […] PMA and […] ionomycin (both final concentrations) are added to each well and incubated for an additional 16 h. Vehicle or test compounds in the amount of […] are incubated with the cells for five minutes prior to initiation of COX-2 enzyme activity by the addition of 30 μM arachidonic acid. Ten minutes later, an aliquot of the supernatant is withdrawn and the amount of PGE2 present quantitated by radioimmunoassay. Activity, reported as percent inhibition of PGE2 produced, is calculated as follows: [formula]

In test [4] the target is T3, human prostaglandin H2 synthase type II (COX-2). Put plainly: Human prostaglandin H2 synthase type II (hCOX-2) homogenate assay (transfected COS-7 cells, PGE2 formation). It counts as biochemical. Details: expressed in transfected cells; host or cells: COS-7 (African Green Monkey Kidney). The note with it: for inhibition at 10 µM: read-out: P3: COX 2 Homogenized Cell % Inhibition; for IC50: read-out: P4: COX 2 Homogenized Cell IC50. As to the method: HUMAN PROSTAGLANDIN H2 SYNTHASE TYPE II (hCOX-2) HOMOGENATE ASSAY (SINGLE CONCENTRATION)
Procedures 3 and 4 were used to assess COX-2 activity in a homogenized cell assay as follows:
as §1, with “COX-2” for “COX-1”

The target in test [5] is T1, COX-1. Put plainly: Human platelet thromboxane B2 production (via COX-1). It counts as cell-based. The note with it: @3 μM (superscript b); human platelets, TXB2 production; read-out: P5: COX 1 Human Platelet % Inhibition.

Molecules are shown by their SMILES.

T1 sequence (P23219 24-599): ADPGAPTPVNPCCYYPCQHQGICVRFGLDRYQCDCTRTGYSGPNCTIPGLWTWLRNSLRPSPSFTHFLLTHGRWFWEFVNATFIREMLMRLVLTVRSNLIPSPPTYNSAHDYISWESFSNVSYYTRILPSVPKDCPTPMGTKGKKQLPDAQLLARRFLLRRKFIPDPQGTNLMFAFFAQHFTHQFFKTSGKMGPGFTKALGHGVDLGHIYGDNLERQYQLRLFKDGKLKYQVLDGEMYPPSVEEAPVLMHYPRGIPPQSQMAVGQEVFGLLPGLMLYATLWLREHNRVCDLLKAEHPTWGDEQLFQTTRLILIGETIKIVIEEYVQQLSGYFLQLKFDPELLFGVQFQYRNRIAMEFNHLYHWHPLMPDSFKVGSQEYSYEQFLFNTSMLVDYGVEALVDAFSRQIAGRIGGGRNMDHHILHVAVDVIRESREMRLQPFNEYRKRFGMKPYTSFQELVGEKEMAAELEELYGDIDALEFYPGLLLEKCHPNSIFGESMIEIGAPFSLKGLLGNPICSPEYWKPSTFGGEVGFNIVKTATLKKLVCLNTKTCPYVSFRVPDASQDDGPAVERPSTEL
T2 sequence (P23219 24-599): as above

As to `CS(=O)(=O)c1ccc(-n2nc(-c3ccc(Cl)cc3)c3c2C=CCC3)cc1` [Example 4a, 3-(4-Chlorophenyl)-4,5-dihydro-1-(4-methylsulfonylphenyl)-1H-indazole], the IC50 (on COX-1 [1]; in test [3]) was > 10000 nM throughout. For the same compound, the inhibition at 10 µM in test [2] turned out to be 32%; in test [3], 0%.

For the compound `CS(=O)(=O)c1ccc(-n2nc(-c3ccc(F)cc3)c3c2C=CCC3)cc1` [Example 5a, 3-(4-Fluorophenyl)-4,5-dihydro-1-(4-methylsulfonylphenyl)-1H-indazole], the IC50 (at COX-1 [1]; in test [3]) was > 10000 nM throughout. The inhibition at 10 µM in test [2] was 32%; in test [3], 9%; in test [4] (@10 μM, COS-7 homogenate), 6%.

As to `COc1ccc(-n2nc(-c3ccc(Cl)cc3)c3c2CCCCC3)cc1` [Example 8, 3-(4-Chlorophenyl)-1-(4-methoxyphenyl)-cycloheptano-[1,2-d]-pyrazole], the inhibition at 10 µM in test [2] was 25%; in test [4] (@10 μM, COS-7 homogenate), 92%. The 50% inhibitory concentration (IC50) amounted to 5300 nM in test [2] (read-out: P7: COX 1 Homogenized Cell IC50), 1560 nM in test [3] and 380 nM in test [4] (COS-7 homogenate).

Take `COc1ccc(-n2nc(-c3ccc(F)cc3)c3c2CCCCC3)cc1` [Example 9, 3-(4-Fluorophenyl)-1-(4-methoxyphenyl)-cycloheptano-[1,2-d]-pyrazole]: the IC50 was > 10000 nM at COX-1 [1], 2510 nM in test [3] and 2500 nM in test [4] (COS-7 homogenate). In addition, the inhibition at 10 µM in test [2] was 64%.

As to `CS(=O)(=O)c1ccc(-n2nc(-c3ccc(Cl)cc3)c3c2CCCCC3)cc1` [Example 10, 3-(4-Chlorophenyl)-1-(4-methylsulfonylphenyl)-cycloheptano-[1,2-d]-pyrazole], on COX-1 [1], the IC50 was found to be 10000 nM. The inhibition at 10 µM in test [2] was 24%; in test [3], 5%; in test [4] (@10 μM, COS-7 homogenate), 26%.

For the compound `Cc1ccc(-n2nc(-c3ccc(Cl)cc3)c3c2CCCCC3)cc1` [Example 11, 3-(4-Chlorophenyl)-1-(4-methylphenyl)-cycloheptano-[1,2-d]-pyrazole], the inhibition at 10 µM in test [2] stood at 74%; in test [4] it was 40%. Also, the IC50 in test [3] is 640 nM.

For the compound `Clc1ccc(-c2nn(-c3ccccc3)c3c2CCCCC3)cc1` [Example 12, 3-(4-Chlorophenyl)-1-phenyl-cycloheptano-[1,2-d]-pyrazole], the half-maximal inhibitory concentration (IC50) at COX-1 [1] is 1000 nM; in test [3], 140 nM. Further, the inhibition at 10 µM in test [2] was 93%.

Turning to `CS(=O)(=O)c1ccc(C(=O)C2CC(=O)CCC2=O)cc1` (stereo not drawn) [Example 29f], the inhibition at 3 µM on COX-1 [5] was 6%; in test [3], 66%.

For the compound `CS(=O)(=O)c1ccc(-n2nc3c(c2-c2ccc(C(F)(F)F)cc2)CCC=C3)cc1` [Example 32c], the inhibition at 3 µM on COX-1 [5] came to 24%. For the same compound, the IC50 in test [3] is 610 nM.

For the compound `CCOc1ccc2c(-c3ccc(F)cc3)nn(-c3ccc(S(C)(=O)=O)cc3)c2c1` [Example 32j], the inhibition at 3 µM worked out at 35% on COX-1 [5] and 87% in test [3].

Take `Fc1ccc(-n2nc(-c3ccc(Cl)cc3)c3ccc4[nH]c5ccc(F)cc5c4c32)cc1` [Example 32k]: the inhibition at 3 µM on COX-1 [5] turned out to be 22%; in test [3] it was 29%.
